The numbers were not newly measured in US20060286181A1, “Diet supplements for causing fast weight loss, improving daytime energy, promoting nighttime relaxation and sleep, controlling appetite and/or increasing metabolism” (priority 2005, published 2006), which cites them from elsewhere.

For series [1] the following is noted: daily supplementation with moderate exercise, 8 weeks.
Assay in series [2]: not given
This is another data set of the same source.

The next series deals with fatty acid synthesis. The conditions noted are these: rats.
In another series the test system is appetite. The conditions noted are these: rats.
The target of another series is T1, ATP:citrate lyase (Homo sapiens, UniProt P53396).
T1 sequence (P53396 1-1101): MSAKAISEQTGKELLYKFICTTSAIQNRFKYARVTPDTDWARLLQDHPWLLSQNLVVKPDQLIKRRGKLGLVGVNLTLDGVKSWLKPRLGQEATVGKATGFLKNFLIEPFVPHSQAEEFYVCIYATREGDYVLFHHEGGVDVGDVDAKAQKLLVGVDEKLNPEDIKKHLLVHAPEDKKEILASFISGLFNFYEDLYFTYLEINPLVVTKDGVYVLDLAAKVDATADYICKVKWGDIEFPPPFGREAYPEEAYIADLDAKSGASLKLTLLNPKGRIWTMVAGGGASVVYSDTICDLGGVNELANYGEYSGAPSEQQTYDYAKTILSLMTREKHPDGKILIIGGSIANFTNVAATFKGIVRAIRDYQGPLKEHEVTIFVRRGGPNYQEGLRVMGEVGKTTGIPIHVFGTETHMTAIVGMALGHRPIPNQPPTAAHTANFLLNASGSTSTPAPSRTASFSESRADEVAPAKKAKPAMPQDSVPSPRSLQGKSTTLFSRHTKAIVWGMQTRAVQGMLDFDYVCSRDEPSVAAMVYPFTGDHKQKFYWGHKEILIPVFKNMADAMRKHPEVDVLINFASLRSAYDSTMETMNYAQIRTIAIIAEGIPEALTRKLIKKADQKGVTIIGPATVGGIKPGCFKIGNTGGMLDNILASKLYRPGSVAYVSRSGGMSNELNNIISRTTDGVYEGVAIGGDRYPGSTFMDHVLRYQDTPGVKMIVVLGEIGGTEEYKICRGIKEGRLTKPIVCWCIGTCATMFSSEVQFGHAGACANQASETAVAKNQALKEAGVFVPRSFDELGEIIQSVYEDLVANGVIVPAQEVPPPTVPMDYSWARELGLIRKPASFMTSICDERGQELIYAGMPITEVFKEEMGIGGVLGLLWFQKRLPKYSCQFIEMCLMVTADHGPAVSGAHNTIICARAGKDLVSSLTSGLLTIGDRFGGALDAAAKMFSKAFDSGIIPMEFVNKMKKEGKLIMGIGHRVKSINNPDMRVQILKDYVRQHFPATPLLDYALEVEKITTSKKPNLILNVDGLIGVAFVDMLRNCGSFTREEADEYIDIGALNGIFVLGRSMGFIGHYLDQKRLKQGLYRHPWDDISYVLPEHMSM

Assay in series [3]: not given
This is another data set of the same source.

For series [4] the following is noted: 8 weeks, overweight subjects.
Another series relates to diet-induced weight gain. The conditions noted are these: mice.
The conditions of series [5]: at least three clinical trials.
The conditions of series [6]: meta-analysis of forty double-blind studies.
Assay in series [7]: not given
The source holds these as a separate data set.

Series [8] has as its system benzodiazepine binding site in the gamma-aminobutyric acid receptor type A (GABA(A)).
The conditions of series [9]: in vivo.

Where two headings read alike, the source gives them in different places.

Phosphatidylserine: for the setting “clinical trials”, the cortisol levels entry was “lower cortisol levels” and the stress entry is “reduce stress”. In addition, where the note is “human, in vivo”, the exercise capacity result is listed as “increase exercise capacity” and the mood result is given as “positively affect mood”.

In the case of `[Cr]` [chromium, Chromium], the blood cholesterol profile result in series [1] is recorded as “improved blood cholesterol profile”. Also, the weight loss entry in [1] (vs placebo group) was “increased weight loss”. Further, in series [2] (clinical), the lean mass entry is “increase lean mass”. The body fat entry in series [2] (combined with exercise) was “reduce body fat”. For the same compound, the HDL cholesterol result in series [2] (in vivo) is given as “increase HDL”.

Take `O=C(O)CC(O)(C(=O)O)C(O)C(=O)O` (centres unmarked) [HCA, Hydroxycitric acid]: the fatty acid synthesis entry with fatty acid synthesis was “inhibit fatty acid synthesis”. Besides, the appetite entry with appetite is “repress appetite”. Also, the “inhibition of ATP:citrate lyase” value at ATP:citrate lyase is given as “competitive inhibitor”. Moreover, the caloric intake entry in series [3] (clinical studies) is on record as “reduction caloric intake”. The safety entry in [3] (human clinical trials) is given as “demonstrated safety”. The levels of serotonin result in [3] (human, in vivo) is on record as “significantly increased”. Moreover, the “fat oxidation during exercise” value in [3] (untrained men and women) was “increasing fat oxidation”.

Consider Chromium Polynicotinate, for which the systolic blood pressure result in the series on Metabolic Syndrome (compared to control groups) is given as “effective in lowering systolic blood pressure”. Also, the “free radical damage in liver and kidney tissue” value in the series on Metabolic Syndrome (compared to controls) is “less free radical damage”. In series [4], the muscle loss entry is on record as “sparing muscle from loss”. Also, in [4] (vs placebo group), the body fat result is “significant loss of body fat”.

Turning to `COc1ccc2[nH]cc(CCNC(C)=O)c2c1` [Melatonin], the diet-induced weight gain result in the series on diet-induced weight gain is on record as “reduce diet-induced weight gain”.

With `N[C@@H](Cc1c[nH]c2ccc(O)cc12)C(=O)O` [Example 5-HTP, 5-hydroxy-L-tryptophan], in series [5], the “weight loss, safety and efficacy” value is “safely and effectively to aid in weight loss”.

For the compound `Cn1c(=O)c2c(ncn2C)n(C)c1=O` [caffeine, Caffeine], the physical endurance entry in series [6] is “increase physical endurance”. The basal metabolic rate entry in series [7] (in vivo) was “increase the basal metabolic rate”. Moreover, the weight loss entry in series [7] (obese women) is “Significant weight loss”. In addition, the “binding to and activation of adenosine receptors” value in the series on adenosine receptors is given as “binds to, but does not activate”.

For `O=c1cc(-c2ccc(O)cc2)oc2cc(O)cc(O)c12` [Apigenin], the “binding to benzodiazepine binding site of GABA(A)” value in series [8] is recorded as “can bind”. Also, in series [9], the “memory and motor skills” value was “without impairing memory or motor skills”; the “sedation and locomotor activity” value is “sedation and a reduction in locomotor activity”.
